According to ChEMBL document CHEMBL1144939, “Modeling the adenosine receptors: comparison of the binding domains of A2A agonists and antagonists” (J Med Chem, 2003):

Key:
[1] = biological target: Adenosine receptors; A1 & A2a (Homo sapiens) (UniProt P30542+P29274); experiment: Selectivity ratio for binding to human adenosine A1 and A2A receptors; assay type: protein assay
Adenosine receptor A2a [2] = biological target: Adenosine receptor A2a (Homo sapiens, UniProt P29274); experiment: biochemical
Adenosine receptor A2a (Homo sapiens, UniProt P29274), sequence (P29274 whole entry): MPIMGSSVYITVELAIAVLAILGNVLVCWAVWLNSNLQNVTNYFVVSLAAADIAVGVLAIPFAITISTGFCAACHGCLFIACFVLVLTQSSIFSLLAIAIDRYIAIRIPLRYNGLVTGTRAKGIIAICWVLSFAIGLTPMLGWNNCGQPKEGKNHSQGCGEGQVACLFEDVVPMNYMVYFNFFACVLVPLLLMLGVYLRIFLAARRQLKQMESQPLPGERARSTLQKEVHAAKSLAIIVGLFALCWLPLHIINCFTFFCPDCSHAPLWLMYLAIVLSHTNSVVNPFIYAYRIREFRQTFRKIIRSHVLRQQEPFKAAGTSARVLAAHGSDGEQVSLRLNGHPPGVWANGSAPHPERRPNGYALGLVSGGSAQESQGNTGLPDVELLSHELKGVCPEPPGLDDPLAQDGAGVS
Description: Binding affinity against WT human adenosine A2A receptor expressed in CHO cells using [3H]- ZM-241385

Adenosine receptor A2a [3] = biological target: Adenosine receptor A2a (Homo sapiens, UniProt P29274, H278E); experiment: biochemical
Adenosine receptor A2a (Homo sapiens, UniProt P29274, H278E), sequence (P29274 whole entry H278E): as the sequence (P29274 whole entry) above, with H278E counted along it

Adenosine receptor A2a [4] = biological target: Adenosine receptor A2a (Homo sapiens, UniProt P29274, T88D); experiment: Binding affinity against T88D human adenosine A2A receptor expressed in CHO cells using [3H]- ZM-241385; assay type: cell-based
Adenosine receptor A2a (Homo sapiens, UniProt P29274, T88D), sequence (P29274 whole entry T88D): as the sequence (P29274 whole entry) above, with T88D counted along it

Adenosine receptor A2a [5] = biological target: Adenosine receptor A2a (Homo sapiens, UniProt P29274, H278D); experiment: biochemical
Adenosine receptor A2a (Homo sapiens, UniProt P29274, H278D), sequence (P29274 whole entry H278D): as the sequence (P29274 whole entry) above, with H278D counted along it

Adenosine receptor A2a [6] = biological target: Adenosine receptor A2a (Homo sapiens, UniProt P29274, S277E); experiment: biochemical
Adenosine receptor A2a (Homo sapiens, UniProt P29274, S277E), sequence (P29274 whole entry S277E): as the sequence (P29274 whole entry) above, with S277E counted along it

Adenosine receptor A2a [7] = biological target: Adenosine receptor A2a (Homo sapiens, UniProt P29274, Q89D); experiment: biochemical
Adenosine receptor A2a (Homo sapiens, UniProt P29274, Q89D), sequence (P29274 whole entry Q89D): as the sequence (P29274 whole entry) above, with Q89D counted along it

Adenosine receptor A2a [8] = biological target: Adenosine receptor A2a (Homo sapiens, UniProt P29274, T88E); experiment: Binding affinity against T88E human adenosine A2A receptor expressed in CHO cells using [3H]- ZM-241385; assay type: cell-based
Adenosine receptor A2a (Homo sapiens, UniProt P29274, T88E), sequence (P29274 whole entry T88E): as the sequence (P29274 whole entry) above, with T88E counted along it

| Ratio [1] | Ki (Adenosine receptor A2a [2]) [µM] | Ki (Adenosine receptor A2a [3]) [µM] | Ki (Adenosine receptor A2a [4]) [µM] | Ki (Adenosine receptor A2a [5]) [µM] | Ki (Adenosine receptor A2a [6]) [µM] | Ki (Adenosine receptor A2a [7]) [µM] | Ki (Adenosine receptor A2a [8]) [µM] | Structure (SMILES) |
| --- | --- | --- | --- | --- | --- | --- | --- | --- |
| 9820 | – | – | – | – | – | – | – | Nc1ccc(CCCn2ncc3c2nc(N)n2nc(-c4ccco4)nc32)cc1 |
| – | 0.067 | 64 | 18 | 87 | 88 | 6.4 | 57 | N[C@H]1[C@@H](O)[C@H](n2cnc3c(NCc4cccc(I)c4)ncnc32)O[C@@H]1CO |
| – | 0.079 | 56 | 6.5 | 59 | 67 | 58 | 64 | NC[C@H]1[C@@H](O)[C@H](n2cnc3c(NCc4cccc(I)c4)ncnc32)O[C@@H]1CO |
| – | 0.534 | – | 407 | – | 604 | 52 | 492 | NC[C@H]1O[C@@H](n2cnc3c(N)ncnc32)[C@H](O)[C@@H]1O |
